Results as given in ChEMBL document CHEMBL2439973, “Discovery of VU0409106: A negative allosteric modulator of mGlu5 with activity in a mouse model of anxiety” (Bioorg Med Chem Lett, 2013).

What was measured:
[1] = target: Metabotropic glutamate receptor 5 (Rattus norvegicus, UniProt P31424); assay: Negative allosteric modulation of rat mGlu5 receptor expressed in HEK293A cells assessed as inhibition of glutamate-induced calcium mobilization preincubated for 140 seconds prior to glutamate-stimulation measured after 60 seconds; format: functional, cell-based, HEK293-A
Cytochrome P450 3A4 = Cytochrome P450 3A4 (Homo sapiens, UniProt P08684); assay: Inhibition of CYP3A4 in human liver microsomes in presence of NADPH; format: ADME, Microsome
Brain [2] = assay: Fraction unbound in mouse brain homogenates by equilibrium dialysis technique; format: ADME, tissue-based; conditions: brain homogenate
[3] = target: Metabotropic glutamate receptor 5 (Rattus norvegicus) (UniProt P31424); assay: Negative allosteric modulation of rat mGlu5 receptor expressed in HEK293A cells assessed as inhibition of glutamate-induced calcium mobilization at 30 uM preincubated for 140 seconds prior to glutamate-stimulation measured after 60 seconds relative to glutamate; format: functional, cell-based; conditions: HEK293-A
[4] = Ratio of drug level in brain to plasma in CD-1 mouse at 10 mg/kg, ip by LC-MS/MS analysis; format: ADME, organism-based; set-up: dose 10 mg/kg, route intraperitoneal; conditions: brain and plasma, read-out: BPR
Plasma [5] = assay: Cmax in CD-1 mouse plasma at 10 mg/kg, ip by LC-MS/MS analysis; format: ADME, organism-based; set-up: dose 10 mg/kg, route intraperitoneal; conditions: in vivo
Brain [6] = assay: AUC in CD-1 mouse brain at 10 mg/kg, ip by LC-MS/MS analysis; format: ADME, organism-based; set-up: dose 10 mg/kg, route intraperitoneal; conditions: in vivo
Plasma [7] = assay: Tmax in CD-1 mouse plasma at 10 mg/kg, ip by LC-MS/MS analysis; format: ADME, organism-based; set-up: dose 10 mg/kg, route intraperitoneal; conditions: in vivo
[8] = Cmax in CD-1 mouse brain at 10 mg/kg, ip by LC-MS/MS analysis; format: ADME, organism-based; set-up: dose 10 mg/kg, route intraperitoneal
Plasma [9] = assay: AUC in CD-1 mouse plasma at 10 mg/kg, ip by LC-MS/MS analysis; format: ADME, organism-based; set-up: dose 10 mg/kg, route intraperitoneal; conditions: in vivo
Brain [10] = assay: Tmax in CD-1 mouse brain at 10 mg/kg, ip by LC-MS/MS analysis; format: ADME, organism-based; set-up: dose 10 mg/kg, route intraperitoneal; conditions: in vivo

Sequence of Metabotropic glutamate receptor 5 (P31424 whole entry): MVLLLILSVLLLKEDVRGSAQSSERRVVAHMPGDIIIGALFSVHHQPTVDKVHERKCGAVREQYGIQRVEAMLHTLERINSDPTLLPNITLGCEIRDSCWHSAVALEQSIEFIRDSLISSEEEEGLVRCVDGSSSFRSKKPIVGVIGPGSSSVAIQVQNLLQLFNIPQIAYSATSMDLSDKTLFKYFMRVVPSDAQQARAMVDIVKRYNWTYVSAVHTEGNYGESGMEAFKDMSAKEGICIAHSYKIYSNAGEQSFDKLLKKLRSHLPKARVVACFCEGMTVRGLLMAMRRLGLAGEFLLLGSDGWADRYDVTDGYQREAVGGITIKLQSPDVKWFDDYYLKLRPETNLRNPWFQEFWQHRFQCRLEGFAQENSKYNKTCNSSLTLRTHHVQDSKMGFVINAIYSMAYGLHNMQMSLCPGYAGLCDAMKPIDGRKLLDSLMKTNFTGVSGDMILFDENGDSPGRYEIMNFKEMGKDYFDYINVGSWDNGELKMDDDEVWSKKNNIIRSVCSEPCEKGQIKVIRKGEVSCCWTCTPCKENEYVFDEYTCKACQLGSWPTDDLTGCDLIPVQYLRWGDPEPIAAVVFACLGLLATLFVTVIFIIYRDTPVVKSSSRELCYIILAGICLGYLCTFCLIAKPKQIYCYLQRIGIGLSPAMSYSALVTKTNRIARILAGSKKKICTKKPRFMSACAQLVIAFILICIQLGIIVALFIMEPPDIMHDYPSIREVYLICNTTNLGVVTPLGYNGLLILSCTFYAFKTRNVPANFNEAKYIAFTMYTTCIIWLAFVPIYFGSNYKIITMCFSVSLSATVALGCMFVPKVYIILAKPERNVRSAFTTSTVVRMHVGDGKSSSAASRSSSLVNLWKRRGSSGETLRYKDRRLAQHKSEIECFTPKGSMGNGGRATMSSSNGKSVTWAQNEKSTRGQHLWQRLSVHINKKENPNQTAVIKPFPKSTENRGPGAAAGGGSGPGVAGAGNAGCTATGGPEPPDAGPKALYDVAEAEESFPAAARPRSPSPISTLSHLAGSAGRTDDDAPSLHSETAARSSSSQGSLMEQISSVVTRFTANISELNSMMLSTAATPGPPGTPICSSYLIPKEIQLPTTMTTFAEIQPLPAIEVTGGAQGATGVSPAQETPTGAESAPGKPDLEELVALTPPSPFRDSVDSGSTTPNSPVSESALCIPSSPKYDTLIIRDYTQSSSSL
Sequence of Metabotropic glutamate receptor 5 (Rattus norvegicus) (P31424 21-1203 limits assumed): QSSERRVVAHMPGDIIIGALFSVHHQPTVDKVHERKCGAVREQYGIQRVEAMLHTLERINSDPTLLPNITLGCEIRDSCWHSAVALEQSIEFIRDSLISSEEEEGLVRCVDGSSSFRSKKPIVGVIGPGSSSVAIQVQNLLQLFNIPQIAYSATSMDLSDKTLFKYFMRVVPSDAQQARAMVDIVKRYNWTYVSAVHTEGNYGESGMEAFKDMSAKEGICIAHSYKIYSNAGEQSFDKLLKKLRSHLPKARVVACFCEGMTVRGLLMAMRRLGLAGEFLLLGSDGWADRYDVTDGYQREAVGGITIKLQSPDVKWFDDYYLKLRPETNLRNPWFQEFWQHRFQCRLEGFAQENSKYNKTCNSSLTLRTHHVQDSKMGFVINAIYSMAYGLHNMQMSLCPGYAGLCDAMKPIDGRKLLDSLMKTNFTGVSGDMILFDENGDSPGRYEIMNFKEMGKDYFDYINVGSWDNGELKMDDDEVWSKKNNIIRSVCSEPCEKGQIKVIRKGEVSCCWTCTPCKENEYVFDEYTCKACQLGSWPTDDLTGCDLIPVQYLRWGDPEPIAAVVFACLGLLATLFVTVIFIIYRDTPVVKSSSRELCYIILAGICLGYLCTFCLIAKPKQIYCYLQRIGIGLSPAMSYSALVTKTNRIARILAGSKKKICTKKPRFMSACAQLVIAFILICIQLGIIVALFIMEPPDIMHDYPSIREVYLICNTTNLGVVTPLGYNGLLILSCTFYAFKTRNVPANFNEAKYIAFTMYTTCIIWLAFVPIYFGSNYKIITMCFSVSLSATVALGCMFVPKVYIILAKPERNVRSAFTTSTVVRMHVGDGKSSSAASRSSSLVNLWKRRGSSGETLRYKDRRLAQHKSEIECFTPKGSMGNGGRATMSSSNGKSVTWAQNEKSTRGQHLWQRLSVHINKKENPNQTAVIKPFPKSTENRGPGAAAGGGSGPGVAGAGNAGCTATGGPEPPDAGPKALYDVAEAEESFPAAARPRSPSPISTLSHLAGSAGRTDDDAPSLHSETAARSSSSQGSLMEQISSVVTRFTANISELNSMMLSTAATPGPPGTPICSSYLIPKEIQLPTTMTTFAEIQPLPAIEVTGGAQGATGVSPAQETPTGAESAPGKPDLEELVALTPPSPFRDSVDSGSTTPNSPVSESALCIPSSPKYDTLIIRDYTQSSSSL
Sequence of Cytochrome P450 3A4 (P08684 whole entry): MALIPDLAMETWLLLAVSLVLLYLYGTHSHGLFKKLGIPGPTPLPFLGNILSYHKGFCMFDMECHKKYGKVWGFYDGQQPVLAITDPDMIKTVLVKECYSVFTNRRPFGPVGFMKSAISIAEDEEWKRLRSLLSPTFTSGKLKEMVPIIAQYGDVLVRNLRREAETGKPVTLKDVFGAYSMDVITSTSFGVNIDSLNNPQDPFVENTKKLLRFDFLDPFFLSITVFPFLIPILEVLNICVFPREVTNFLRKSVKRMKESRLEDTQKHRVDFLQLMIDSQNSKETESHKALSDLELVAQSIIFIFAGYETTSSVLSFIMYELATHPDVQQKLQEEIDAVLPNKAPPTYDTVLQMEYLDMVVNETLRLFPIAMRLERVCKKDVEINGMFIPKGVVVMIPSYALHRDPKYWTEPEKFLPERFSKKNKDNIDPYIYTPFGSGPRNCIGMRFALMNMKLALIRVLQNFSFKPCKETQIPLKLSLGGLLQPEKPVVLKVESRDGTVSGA

Compound	IC50 [1] [nM]	%max [3] [%]	other results
COc1cccc(NC(=O)c2cc(F)cc(Oc3cncnc3)c2)n1	668		
O=C(Nc1cccc(F)n1)c1cc(Cl)cc(Oc2cncnc2)c1			IC50 (Cytochrome P450 3A4): < 100 nM; Fu (Brain [2]): 0.057
Cc1cccc(NC(=O)c2cc(Cl)cc(Oc3cncnc3)c2)n1			IC50 (Cytochrome P450 3A4): 4300 nM; Fu (Brain [2]): 0.052
Cc1nc(NC(=O)c2cc(F)cc(Oc3cncnc3)c2)sc1F	54		
Cc1cccc(NC(=O)c2cc(Cl)cc(Oc3cnc(C)nc3)c2)n1	96	1.6	
O=C(Nc1nccs1)c1cc(F)cc(Oc2cncnc2)c1	1790		
O=C(Nc1cccc(Cl)n1)c1cc(Cl)cc(Oc2cncnc2)c1			IC50 (Cytochrome P450 3A4): 1900 nM; Fu (Brain [2]): 0.019
Cc1cccc(NC(=O)c2cc(Cl)cc(Oc3cncc(C#N)c3)c2)n1	10	1.6	
CCc1ccnc(NC(=O)c2cc(Cl)cc(Oc3cncnc3)c2)c1	4450		
Cc1cccc(NC(=O)c2cccc(Oc3cccnc3)c2)c1	2190	1.4	
Cc1cccc(NC(=O)c2cc(Cl)cc(Oc3cncc(F)c3)c2)n1	7.5	1.8	IC50 (Cytochrome P450 3A4): 700 nM; Fu (Brain [2]): 0.003
O=C(Nc1ccc(F)c(C(F)F)n1)c1cc(Cl)cc(Oc2cncnc2)c1	502		
O=C(Nc1ccc(Cl)cn1)c1cc(Cl)cc(Oc2cncnc2)c1	103		
Cc1csc(NC(=O)c2cc(Cl)cc(Oc3cncnc3)c2)n1			IC50 (Cytochrome P450 3A4): 2200 nM; Fu (Brain [2]): 0.025
O=C(Nc1cccc(Cl)c1)c1cccc(Oc2cccnc2)c1	1960	1.6	
Cc1nc(NC(=O)c2cc(Cl)cc(Oc3cncnc3)c2)ccc1F	50		
Cc1csc(NC(=O)c2cccc(Oc3cccnc3)c2)n1	772		
O=C(Nc1ccc(F)cn1)c1cc(Oc2cncnc2)cc(C(F)(F)F)c1	5530	3.2	
Cc1ncc(Oc2cc(Cl)cc(C(=O)Nc3ccc(F)cn3)c2)cn1	4470	2.6	
N#Cc1cc(Oc2cncnc2)cc(C(=O)Nc2ccc(F)cn2)c1	318	1.1	
O=C(Nc1ccc(F)cn1)c1cc(Cl)cc(Oc2cncnc2)c1			Kp [4]: 0.93; IC50 (Cytochrome P450 3A4): 6200 nM; Cmax (Plasma [5]): 303 ng/mL; AUC (Brain [6]): 365 ng·h/g; Tmax (Plasma [7]): 30 min; Cmax [8]: 311 ng/g; Fu (Brain [2]): 0.08; AUC (Plasma [9]): 391 ng·h/mL; Tmax (Brain [10]): 15 min
O=C(Nc1ccc(F)cn1)c1cc(Cl)cc(Oc2cncc(F)c2)c1	25	1.1	IC50 (Cytochrome P450 3A4): 1300 nM; Fu (Brain [2]): 0.007
N#Cc1cncc(Oc2cc(Cl)cc(C(=O)Nc3ccc(F)cn3)c2)c1	27	1.7	IC50 (Cytochrome P450 3A4): 1700 nM; Fu (Brain [2]): 0.016
Cc1csc(NC(=O)c2cc(Oc3cncnc3)cc(C(F)(F)F)c2)n1	283	1.7	
Cc1csc(NC(=O)c2cccc(Oc3cncnc3)c2)n1	205		
O=C(Nc1nc(C(F)F)cs1)c1cc(Cl)cc(Oc2cncnc2)c1	310		
O=C(Nc1ccc(F)cn1)c1cccc(Oc2cccnc2)c1	3780		
Cc1cc(Oc2cncnc2)cc(C(=O)Nc2ccc(F)cn2)c1	19		
Cc1cc(NC(=O)c2cc(Cl)cc(Oc3cncnc3)c2)ncc1F	3250		
Nc1cc(NC(=O)c2cccc(Cl)c2)cc(Oc2cccnc2)c1	284	1.3	
